Source: a melting point compilation (Tetko et al.; mined from patent text by program, amines drawn as free bases though some values may be those of a salt)

SMILES | melting point
Nc1cc(C(=O)Nc2ccccc2)ccc1F | 167 to 170 °C
COc1ccc(C(=O)O)c2c1OCCCO2 | 186 °C
CCC#CC(C)(C)NC(=O)C(Br)CC (stereo not drawn) | 53 to 55 °C
Cc1onc(-c2ccc(Br)cc2)c1-c1ccc(S(N)(=O)=O)cc1 | 152 to 153 °C
CC(=CC1=NCCC1)N(C)C1CCCCC1 | 152 to 153 °C
CCCCCCCCCCCC(=O)OC(OC(=O)N1CCN(c2cc3c(cc2F)c(=O)c(C(=O)O)cn3CC)CC1)C(=O)OC(C)C (stereo not drawn) | 106 to 109 °C
Clc1cccc(Nc2nc3nonc3nc2Nc2cccc(Cl)c2)c1 | 238 °C
CN1CCC2(CC1)NCc1cc(C(C)(C)C)cc(I)c1O2 | 155 to 156 °C
C#Cc1cnn2c(C(F)(F)F)cc(-c3ccc(Cl)c(C)c3)nc12 | 166 °C
CC(F)(F)c1cccc(-n2cnc(CO)c2)c1 | 104 to 108 °C
c1c[nH]c(C(c2ccc[nH]2)C23CC4CC(C2)CC(C(c2ccc[nH]2)c2ccc[nH]2)(C4)C3)c1 | 110 to 112 °C
CCC(=O)c1onc2ccccc12 | 51 to 53 °C
COC(CN/C=C\C(=C(C#N)C#N)c1ccc2cc(N(C)C)ccc2c1)OC | 158 to 159 °C
COc1cc(OC)nc(Oc2cccc(C(F)(F)F)c2C(=O)O)n1 | 151 to 153 °C
Cc1cc(C)cc(Sc2c(C(C)C)nc(C=NO)n2C)c1 | 240 to 241 °C
COC(=O)CCN(C)CCNC(=O)c1nc(Cl)c(N)nc1N | 136 to 137 °C
CCOCc1nc2ncc(C)nc2c(=O)[nH]1 | 181 to 183 °C
COc1ccc(-c2nc(/C=C/c3nccn3C)nc3cc(OC)c(OC)cc23)cc1OC | 180 to 181 °C
c1ccc2c(c1)CSO2 | 87 °C
COC(=O)C(O)c1cc(F)cc(F)c1 (stereo not drawn) | 61.8 °C
O=C(CC1(O)CCC1)N[C@H]1CC[C@H](CCN2CCN(c3nccc4c3CCO4)CC2)CC1 | 155 °C

SMILES | melting point
CCCCCCCCc1cc2c(s1)-n1c(C)nnc1CN=C2c1ccccc1Cl | 80 to 82 °C
Cn1nc(C(F)(F)F)c(C(O)=C(Br)n2ccc(-c3c(F)cccc3F)n2)c1Cl | 123 to 125 °C
ONc1ccccc1F | 70 to 71 °C
Cc1cc(C)cc(/C=C/c2ccc(O)cc2)c1 | 142 °C
Cc1ccc(C(SCCN(C)CCCCN=C(NC#N)NCCSCc2csc(NC(=N)N)n2)c2ccccc2)cc1 (stereo not drawn) | 134 to 140 °C
CN(CCc1cccs1)C(=O)C12CC3CC(CC(C3)C1)C2 | 95 to 99 °C
CCc1ccnc2cc(OC)c(O)cc12 | 200 to 202 °C
Ic1c[nH]c2nccc(OC3CCCCC3)c12 | 199 to 201 °C
CCCCCCCCCCCCCCN(O)CCCCCCCCCCCCCC | 94 to 96 °C
O=C(O)C1(c2ccccc2)CCN(Cc2ccccc2)CC1 | 286 °C
COc1cc(C)c(C=CC(C)=CC=CC(C)=CCO)c(C)c1C | 128 to 130 °C
Cc1csc(-c2sc(Br)cc2-c2ccc(F)cc2)c1 | 113 to 116 °C
CCc1nc2c(N)nc3ccccc3c2n1CCCCSC | 183 to 186 °C
COc1ccc(CS(=O)(=O)CC(=O)O)cc1O | 164 to 165 °C
CCOc1nsc(NC(=O)NC)c1C(N)=O | 240 to 241 °C
C=C(CCCCCCCCCCCCCC)C(=O)O | 49.5 to 50 °C
C[C@H](NC(=O)[C@H](Cc1ccccc1)NC(=O)CS)C(=O)O | 172 to 174 °C
CC(C)C1=Cc2cc(OCC(=O)O)c(Cl)c(Cl)c2C1=O | 176 °C
CC(C)(C)NC(=O)N1CC(Oc2ccc(C(F)(F)F)cc2)C1 | 145 to 146 °C
CSc1cc(=O)c2ccc(F)cc2s1 | 120 to 121 °C

Results, then the compound that gave them:

melting point | SMILES
163 °C | Cc1nn(-c2cccnc2)c(-c2cccc(Cl)c2)c1CC(=O)O
106 °C | COc1ccc(C#Cc2ccc(C=O)cc2)cc1
161 to 162 °C | CCOC(=O)c1c(CN(CC)CC)nc2sc3c(c2c1-c1ccc(OC)c(OC)c1)CCN(S(=O)(=O)c1ccccc1)C3
100 to 102 °C | CCC(OC)(c1ccc(OCc2ccc3ccccc3n2)c(OC)c1)c1nccs1 (stereo not drawn)
226 to 228 °C | NC(=O)c1ccc(C(=O)N2Cc3cccn3Cc3ccccc32)cc1
85 to 89 °C | CCCCCCCCc1ccc(C(O)C(=O)c2ccccc2)cc1 (stereo not drawn)
153 to 154 °C | COc1cc(COc2nn(-c3ccccc3)cc2CC#N)ccc1OCc1nc(-c2ccco2)oc1C
127 to 129 °C | CN(C(=O)c1coc(C=Cc2ccc(C(F)(F)F)cc2)n1)c1ccc(CCCCn2ccnn2)cc1
53 to 57 °C | Cn1nc(N=Cc2ccccc2)nc1NCC(O)COc1cccc(CN2CCCCC2)c1 (stereo not drawn)
184 to 186 °C | Cc1nc(Nc2ccc(Cl)cc2)sc1C(=O)c1sc(Nc2ccc(Cl)cc2)nc1C
168 to 169 °C | CC#COc1cccc2oc3ccccc3c(=O)c12
160 to 162 °C | COc1ccc(-c2nc3n(c2-c2ccc(OC)cc2)C(F)C(F)(F)S3)cc1 (stereo not drawn)
140 to 141 °C | Cc1c(NC(=O)c2ccc(OC[C@@H]3CCCO3)cc2)ccc2cc(CN[C@H](C)C(C)(C)C)cnc12
189 to 190 °C | CCCCc1nc2c(N)nc3ccccc3c2n1CCCNC(=O)c1ccccc1
275 °C | Cc1cc(-c2ccc(Cl)cc2)nc(-n2cnc(-c3cccc(S(N)(=O)=O)c3)c2)n1
171 to 172 °C | Cc1nc(NC(=O)c2ccncc2)sc1C(=O)NCc1ccccc1

melting point | SMILES
62 to 63 °C | COc1ccc(-c2cccnc2)cc1
198 to 200 °C | O=C(O)Cc1ccc(NC(=O)C(COc2ccccc2Cl)NS(=O)(=O)c2ccc(I)cc2)cc1 (racemic)
107 to 108 °C | CSC(C#N)c1cccc(C(=O)c2ccccc2)c1N (stereo not drawn)
213 to 214 °C | CC(C)C[C@H](NC(=O)Nc1cccc2ccccc12)C(=O)N[C@H]1CCOC1=O
204 to 205 °C | O=C([C@@H]1CCCN1S(=O)(=O)c1ccc2ccccc2c1)N1C[C@H](c2ccc(Cl)cc2)Sc2ccc3ccccc3c21
92 to 94 °C | COc1ccc(N2CCN(c3c(C)c(C)c4c(c3C)C(CCc3ccccc3)C(C)(C)O4)CC2)cc1 (stereo not drawn)
260 to 261 °C | COc1ccc(Oc2c(N)cc(C(=O)O)cc2S(N)(=O)=O)cc1
180 °C | ON=C(c1cccs1)c1cccc2nc(N[C@@H]3CCc4ccccc43)ccc12
84 °C | COc1cc(C2(C#N)CC2)ccc1OCc1ccccc1
218 °C | CN(C)C1=C(C#N)C(c2ccc(Cl)c([N+](=O)[O-])c2)c2ccc3ccccc3c2O1 (stereo not drawn)
127 to 145 °C | Cc1ccccc1C(=O)CN1C(=O)C(NC(=O)c2cc3ccccc3[nH]2)N=C(C2CCCCC2)c2cccc(C)c21 (racemic)
120 °C | COc1ccccc1[C@@]1(O)C[C@@H](C)C[C@@H]2CN(Cc3ccccc3)C[C@@H]21 (racemic)
129 to 130 °C | CNC(=O)C(=O)c1ccccc1COc1cc(C)ccc1C
173 to 174 °C | COc1cc(COc2nn(-c3ccccc3)cc2/C=C/C(=O)N(C)OC)ccc1OCc1nc(-c2ccco2)oc1C
287 °C | O=C1/C(=C/c2c[nH]c3ncc(Cl)cc23)N=C(Oc2ccccc2)N1c1ccccc1
251 to 253 °C | CCn1cc(C(=O)O)c(=O)c2cc(F)c(N3CCC(CNC)C3)nc21 (stereo not drawn)
